# Source: patent US6630510B1, “Substituted succinic acid metallo-β-lactamase inhibitors and their use in treating bacterial infections” (priority 1999, dated 2003)
# Experiments:
# [1] = test system: E. coli BL21(DE3)/pET30a-IMP-1; assay: Carbapenem sensitivity (MIC) of E. coli expressing IMP-1; format: cell-based; settings: for fold reduced sensitivity resulting from basal (uninduced) IMP-1 expression: pET30a-IMP-1 introduced into E. coli BL21(DE3)
# Description: A laboratory strain of E.coli engineered to express IMP-1 was used to evaluate the ability of succinate derivatives to reverse metallo-β-lactamase-mediated carbapenem resistance in bacteria. Native IMP-1, which included the N-terminal periplasmic signal sequence, was PCR amplified from […] isolated from a carbapenem resistant P. aeruginosa clinical isolate, CL56673, and cloned into the pET30a vector. […] To evaluate IMP-1 inhibitors, an overnight culture of E. coli BL2(DE3)/pET30a-IMP-1, grown 35° C. in LB broth (Difco) or Mueller Hinton broth (BBL) supplemented with kanamycin ([…]), was diluted to a final concentration of ˜10^5 cells/ml in Mueller Hinton broth (BBL) containing a subinhibitory concentration (0.25×MIC) of the carbapenem, (1S,5R,6S)-1-methyl-2-{7-[4-(aminocarbonylmethyl)-1,4-diazoniabicyclo(2.2.2)octan-1-yl]methyl-fluoren-9-on-3-yl}-6-(1R-hydroxyethyl)carbapen-2-em-3-carboxylate chloride. Various concentrations of IMP-1 inhibitor were added to the bacterial growth medium and their capacity to effect a four-fold or greater increase in sensitivity to the carbapenem was monitored.
# [2] = test system: E. coli BL21(DE3); assay: Carbapenem MIC in E. coli without IMP-1 expression; format: cell-based; settings: without expression of IMP-1
Compound,fold reduced sensitivity resulting from basal (uninduced) IMP-1 expression [1] [fold],minimum inhibitory concentration (MIC) [2] [µg/mL],minimum inhibitory concentration (MIC) ([1]; with expression of IMP-1) [µg/mL]
"C[C@@H](O)[C@H]1C(=O)N2C(C(=O)O)=C(SCCN=CN)C[C@H]12 [impenem, imipenem, reference compound]",4,–,–
"C[C@@H](O)[C@H]1C(=O)N2C(C(=O)O)=C(S[C@@H]3CN[C@H](C(=O)N(C)C)C3)[C@H](C)[C@H]12 [meropenem, reference compound]",64,–,–
"(1S,5R,6S)-1-methyl-2-{7-[4-(aminocarbonylmethyl)-1,4-diazoniabicyclo(2.2.2)octan-1-yl]methyl-fluoren-9-on-3-yl}-6-(1R-hydroxyethyl)-carbapen-2-em-3-carboxylate chloride",500,0.06 to 0.12,16 to 32
